Experimental data as given in patent publication US6767897B2, “Therapeutic uses of tri-, tetra-, penta-, and polypeptides” (Innapharma, Inc., priority 1994, dated 2004).
Residues, ends and D or L forms follow the SMILES beside them.

Key:
[1] = rat, in vivo, sc
[2] = tested on: animal models for depression; conditions: in vivo; cited from earlier work

Row | Compound | levels found in the hippocampus and the amygdala [1] | activity in animal models for depression [2]
1 | 4-F-Phe-cis- or trans-4-OH-Pro-Arg-Gly-Trp-NH2 [SEQ ID NO:43] | found at detectable levels and substantially unchaged in the hippocampus and the amygdala | –
2 | CC(C)C[C@H](NC(=O)[C@@H]1CCCN1)C(=O)NCC(N)=O [MIF, prolyl-leucyl-glycinamide] (H-Pro-Leu-Gly-NH2) | – | active in a number of animal models for depression
